Experimental findings from US9994551B2, “Pyridazine derivatives as RORc modulators” (Genentech, Inc., priority 2015, dated 2018) are described below.

For the assay, the target named is T1, RORc ligand binding domain (Homo sapiens, UniProt P51449).
T1 construct: host or cells: E. coli
T1 sequence (P51449 269-508 limits assumed): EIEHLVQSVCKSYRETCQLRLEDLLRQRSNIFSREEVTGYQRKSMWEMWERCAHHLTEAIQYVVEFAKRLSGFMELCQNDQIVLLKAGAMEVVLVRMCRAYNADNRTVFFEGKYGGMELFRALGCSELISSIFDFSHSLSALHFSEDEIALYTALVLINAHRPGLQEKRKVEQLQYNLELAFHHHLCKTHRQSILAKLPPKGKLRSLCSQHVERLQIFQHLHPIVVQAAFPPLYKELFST
Kind of assay: In vitro RORc ligand binding assay (25-[3H]hydroxycholesterol displacement, filter binding). The method, then:
This assay was used to determine a compound's potency in inhibiting activity of RORc by determining, Kiapp, IC50, or percent inhibition values.
On day of the assay, 100 uL of 0.05% CHAPS (in deionized H2O) was added to all wells of the GFB Unifilter plate and allowed soak for 1 h. A wash buffer of 50 mM HEPES (pH 7.4), 150 mM NaCl, and 5 mM MgCl2 was prepared to wash the filter plate. To prepare an assay buffer, BSA was added to the wash buffer to reach 0.01% and DTT was added to reach 1 mM.
The 20× compound stocks were diluted in DMSO with Assay Buffer 4-fold to reach 5× the final test concentration in 25% DMSO (10 uL compound+30 uL Assay Buffer). Solutions were mixed by aspiration several times with a pipette set on 50 uL volume. For the assay, 10 uL of 5× compound stock solutions in 25% DMSO were added to the assay plate in duplicate.
For two point screening, 10 mM stock compound solutions were diluted in DMSO to obtain 200 uM (20× the high test concentration) and then diluted 10-fold further to reach 20 uM (20× the low test concentration). The 20× stocks were diluted 4-fold with Assay Buffer (10 uL compound+30 uL Assay Buffer) to reach 5× the test concentrations (50 uM and 5 uM) and 10 uL were added to two assay plates for the duplicate wells. With each concentration tested on 2 plates, each set of 80 compounds used 4 assay plates (1 uM and 10 uM, with n=2).
For 25-hydroxycholesterol in 25% DMSO/75% Assay Buffer; 10 uL per well was used for NSB samples. Wells for Total Binding and No Receptor sample determination contained 10 uL of 25% DMSO/75% Assay Buffer per well.
Add 20 uL to all wells to reach 6 nM final concentration in the assay.
Stock receptor solution was diluted in assay buffer to obtain 1.5 ug/mL in Assay Buffer. 20 uL was added to all wells. For No Receptor samples, 20 uL Assay Buffer was substituted for receptor solution.
Assay plates were 96-well polypropylene V-bottom plates. 10 uL of 5× compound in 25% DMSO/75% Assay Buffer was added to Test wells. 10 uL of 25% DMSO/75% Assay Buffer was added to Total Binding or No Receptor wells. 10 uL of 5 uM 25-hydroxycholesterol in 25% DMSO/75% Assay Buffer was added to NSB wells. […] 20 uL of 1.5 ug/mL RORc receptor was added to wells (or 40 uL Assay Buffer to No R wells). Following addition to the wells, the plates were incubated 3 h at 25° C.
Using a Packard Filtermate Harvester, the filter plate were washed 4 times following transfer of the incubated samples. Plates were dry-filtered completely (2 h at 50° C. or overnight at room temperature). 50 uL Microscint 0 was added to all wells and read on Topcount protocol Inverted.

One may read the IC50 as the concentration at which inhibition is half-maximal. A low value points to greater potency in that assay. Regarding `CC1(C)[C@H]2CC[C@]1([C@H]1CN(C(=O)c3cnco3)CCO1)c1nnc(-c3c(F)cccc3F)cc12` [Compound 94, ((S)-2-((5R,8R)-3-(2,6-difluorophenyl)-9,9-dimethyl-5,6,7,8-tetrahydro-5,8-methanocinnolin-8-yl)morpholino)(oxazol-5-yl)methanone], the IC50 was 76.3 nM. That is a double-digit nanomolar value.

In turn, `CCNC(=O)[C@@H](CC)O[C@@]12CC[C@@H](c3cc(-c4c(F)cccc4F)nnc31)C2(C)C` [Compound 22, (R)-2-(((5S,8R)-3-(2,6-difluorophenyl)-9,9-dimethyl-5,6,7,8-tetrahydro-5,8-methanocinnolin-8-yl)oxy)-N-ethylbutanamide] showed an IC50 of 1010 nM. This IC50 lies about 13-fold higher than the previous one.

`CC1(C)[C@H]2CC[C@]1([C@@H]1CNCCO1)c1nnc(-c3c(F)cccc3F)cc12` [Compound 66, (R)-2-((5R,8R)-3-(2,6-difluorophenyl)-9,9-dimethyl-5,6,7,8-tetrahydro-5,8-methanocinnolin-8-yl)morpholine] gave an IC50 of 458 nM.

Compound `CC1(C)[C@H]2CC[C@]1([C@H]1CCCN(C(=O)c3cn[nH]c3)C1)c1nnc(-c3c(F)cccc3F)cc12` [Compound 167, [3-[5-(2,6-difluorophenyl)-11,11-dimethyl-3,4-diazatricyclo[6.2.1.02,7]undeca-2,4,6-trien-1-yl]-1-piperidyl]-(1H-pyrazol-4-yl)methanone] yielded an IC50 of 8.3 nM.

For the compound `CC1(C)[C@H]2CC[C@]1([C@H]1CCCN(c3ccccn3)C1)c1nnc(-c3c(F)cccc3F)cc12` [Compound 163, 5-(2,6-difluorophenyl)-11,11-dimethyl-1-[1-(2-pyridyl)-3-piperidyl]-3,4-diazatricyclo[6.2.1.02,7]undeca-2,4,6-triene], the IC50 is 27 nM.

`CC1(C)[C@H]2CC[C@]1([C@H]1CN(C(N)=O)CCO1)c1nnc(-c3c(F)cccc3F)cc12` [Compound 81, (S)-2-((5R,8R)-3-(2,6-difluorophenyl)-9,9-dimethyl-5,6,7,8-tetrahydro-5,8-methanocinnolin-8-yl)morpholine-4-carboxamide] came in with an IC50 of 66.2 nM.

For the compound `Cc1n[nH]c(N2CCO[C@H]([C@@]34CC[C@@H](c5cc(-c6c(F)cccc6F)nnc53)C4(C)C)C2)n1` [Compound 142, 2-[5-(2,6-difluorophenyl)-11,11-dimethyl-3,4-diazatricyclo[6.2.1.02,7]undeca-2,4,6-trien-1-yl]-4-(3-methyl-1H-1,2,4-triazol-5-yl)morpholine], the half-maximal inhibitory concentration (IC50) is 19 nM. This IC50 is about 3.5-fold lower than that of the compound before.

With `CC1(C)[C@H]2CC[C@]1(Oc1cncnc1)c1nnc(-c3c(F)cccc3F)cc12` [Compound 28, (5S,8R)-3-(2,6-difluorophenyl)-9,9-dimethyl-8-(pyrimidin-5-yloxy)-5,6,7,8-tetrahydro-5,8-methanocinnoline], the 50% inhibitory concentration (IC50) was 185 nM.

As to `CC1(C)[C@H]2CC[C@]1([C@H]1CCCN(C(=O)c3c[nH]c(=O)cn3)C1)c1nnc(-c3c(F)cccc3F)cc12` [Compound 121, 5-[3-[5-(2,6-difluorophenyl)-11,11-dimethyl-3,4-diazatricyclo[6.2.1.02,7]undeca-2,4,6-trien-1-yl]piperidine-1-carbonyl]-1H-pyrazin-2-one], the half-maximal inhibitory concentration (IC50) is 11 nM.

`CC1(C)[C@H]2CC[C@]1([C@H]1CCCN(c3cccc(=O)[nH]3)C1)c1nnc(-c3c(F)cccc3F)cc12` [Compound 174, 6-[3-[5-(2,6-difluorophenyl)-11,11-dimethyl-3,4-diazatricyclo[6.2.1.02,7]undeca-2,4,6-trien-1-yl]-1-piperidyl]-1H-pyridin-2-one] gave an IC50 of 36 nM.

In turn, `CC[C@@H](O[C@@]12CC[C@@H](c3cc(-c4c(F)cccc4F)nnc31)C2(C)C)C(=O)O` [Compound 111, (2R)-2-[[(1R,8S)-5-(2,6-difluorophenyl)-11,11-dimethyl-3,4-diazatricyclo[6.2.1.02,7]undeca-2,4,6-trien-1-yl]oxy]butanoic acid] showed a half-inhibitory concentration (IC50) of 14 nM.
